According to the NIST ThermoML archive (doi:10.1021/je8003673):
± gives the expanded uncertainty stated by the source.

Settings: Crystal; DTA

Nc1ccc(N)c2c1C(=O)c1ccccc1C2=O [1,4-diaminoanthraquinone] gave a Normal melting temperature of 243.12 ± 0.5 °C.
